We go through 12 compounds from patent US9120756B2, “Substituted phenylureas and phenylamides as vanilloid receptor ligands” (Gruenenthal GmbH, priority 2009, dated 2015).

Common to all, as to type: cell-based
In assay [1] the target is T1, hVR1 (Homo sapiens (Human), UniProt Q8NER1). Description: FLIPR Ca2+ influx assay on CHO K1 cells transfected with the VR1 gene, capsaicin stimulus (method II). Conditions: for inhibition at 5 µM: CHO-K1, read-out: Ki (human being) Cap column: inhibition (as a percentage) @ 5 μM, capsaicin, inhibition determined at 5 μM; for Ki: capsaicin (Cap), read-out: Ki (human being) [nM] Cap. An excerpt:
In the process, the Ca^2+ influx is quantified in the FLIPR assay with the aid of a Ca^2+-sensitive dye (type Fluo-4, Molecular Probes Europe BV, Leiden, the Netherlands) in a fluorescent imaging plate reader (FLIPR, Molecular Devices, Sunnyvale, USA), as described hereinafter.
The agonistic or antagonistic effect of the substances to be tested on the vanilloid receptor 1 (VR1) can also be determined using the following assay. In this assay, the influx of Ca^2+ through the channel is quantified with the aid of a Ca^2+-sensitive dye (type Fluo-4, Molecular Probes Europe BV, Leiden, the Netherlands) in a fluorescent imaging plate reader (FLIPR, Molecular Devices, Sunnyvale, USA).
Chinese hamster ovary cells (CHO K1 cells, European Collection of Cell Cultures (ECACC) United Kingdom) are stably transfected with the VR1 gene. For functional testing, these cells are plated out on poly-D-lysine-coated black 96-well plates having a clear base (BD Biosciences, Heidelberg, Germany) at a density of 25,000 cells/well. The cells are incubated overnight at 37° C. and 5% CO2 in a culture medium (Ham's F12 nutrient mixture, 10% by volume of FCS (foetal calf serum), 18 μg/ml of L-proline). The next day the cells are incubated with Fluo-4 (Fluo-4 2 μM, 0.01% by volume of Pluronic F127, Molecular Probes in HBSS (Hank's buffered saline solution), Gibco Invitrogen GmbH, Karlsruhe, Germany) for 30 minutes at 37° C. Subsequently, the plates are washed three times with HBSS buffer and after further incubation for 15 minutes at RT used for Ca^2+ measurement in a FLIPR assay. The Ca^2+-dependent fluorescence is measured before and after the addition of the substances to be tested (λex wavelength=488 nm, λem=540 nm). Quantification is carried out by measuring the highest fluorescence intensity (FC, fluorescence counts) over time.
The FLIPR protocol consists of 2 substance additions. First the compounds to be tested (10 μM) are pipetted onto the cells and the Ca^2+ influx is compared with the control (capsaicin 10 μM) (% activation based on the Ca^2+ signal after the addition of 10 μM of capsaicin). After 5 minutes' incubation, 100 nM of capsaicin are applied and the Ca^2+ influx is also determined.
Desensitising agonists and antagonists led to suppression of the Ca^2+ influx.
Starting from the percentage displacement caused by different concentrations of the compounds to be tested of general formula I, IC50 inhibitory concentrations which cause a 50-percent displacement of capsaicin were calculated. Ki values for the test substances were obtained by conversion by means of the Cheng-Prusoff equation (Cheng, Prusoff; Biochem. Pharmacol. 22, 3099-3108, 1973).

For assay [2], the target named is T1, hVR1. Description: FLIPR assay hVR1, after pH stimulus. More on the design: key to IC50 (human being) hVR1 pH: result in words (NE / AG): AG=agonist; pAG=partial agonist; NE=no effect. Conditions: for inhibition at 10 µM: read-out: IC50 (human being) hVR1 pH: inhibition (as a percentage) @ 10 μM, inhibition determined at 10 μM. The method, then:
In this assay, the influx of Ca^2+ through the channel is quantified with the aid of a Ca^2+-sensitive dye (type Fluo-4, Molecular Probes Europe BV, Leiden, the Netherlands) in a fluorescent imaging plate reader (FLIPR, Molecular Devices, Sunnyvale, USA). Chinese hamster ovary cells (CHO K1 cells, European Collection of Cell Cultures (ECACC) United Kingdom) are stably transfected with the VR1 gene. For functional testing, these cells are plated out on poly-D-lysine-coated black 96-well plates having a clear base (BD Biosciences, Heidelberg, Germany) at a density of 25,000 cells/well. […] Subsequently, the plates are washed three times with HBSS buffer and after further incubation for 15 minutes at RT used for Ca^2+ measurement in a FLIPR assay. […] Quantification is carried out by measuring the highest fluorescence intensity (FC, fluorescence counts) over time. The FLIPR protocol consists of 2 substance additions. […] Desensitising agonists and antagonists led to suppression of the Ca^2+ influx. […] Ki values for the test substances were obtained by conversion by means of the Cheng-Prusoff equation (Cheng, Prusoff; Biochem. Pharmacol. 22, 3099-3108, 1973).

In assay [3] the target is rat-species vanilloid receptor 1 (VR1/TRPV1) (Rattus norvegicus (Rat), UniProt O35433). Description: FLIPR Ca2+ influx assay on rat dorsal root ganglia cells, capsaicin stimulus (method I). To be noted: for Ki: capsaicin (Cap). As to the method:
The agonistic or antagonistic effect of the substances to be tested on the rat-species vanilloid receptor 1 (VR1/TRPV1) can be determined using the following assay. In this assay, the influx of Ca^2+ through the receptor channel is quantified with the aid of a Ca^2+-sensitive dye (type Fluo-4, Molecular Probes Europe BV, Leiden, the Netherlands) in a fluorescent imaging plate reader (FLIPR, Molecular Devices, Sunnyvale, USA).
Complete medium: 50 ml HAMS F12 nutrient mixture (Gibco Invitrogen GmbH, Karlsruhe, Germany) with
10% by volume of FCS (foetal calf serum, Gibco Invitrogen GmbH, Karlsruhe, Germany, heat-inactivated);
2 mM L-glutamine (Sigma, Munich, Germany);
1% by weight of AA solution (antibiotic/antimyotic solution, PAA, Pasching, Austria) and 25 ng/ml NGF medium (2.5 S, Gibco Invitrogen GmbH, Karlsruhe, Germany)
Cell culture plate: Poly-D-lysine-coated, black 96-well plates having a clear base (96-well black/clear plate, BD Biosciences, Heidelberg, Germany) are additionally coated with laminin (Gibco Invitrogen GmbH, Karlsruhe, Germany), the laminin being diluted with PBS (Ca—Mg-free PBS, Gibco Invitrogen GmbH, Karlsruhe, Germany) to a concentration of 100 μg/ml. Aliquots having a laminin concentration of 100 μg/ml are removed and stored at −20° C. The aliquots are diluted with PBS in a ratio of 1:10 to 10 μg/ml of laminin and respectively 50 μL of the solution are pipetted into a recess in the cell culture plate. The cell culture plates are incubated for at least two hours at 37° C., the excess solution is removed by suction and the recesses are each washed twice with PBS. The coated cell culture plates are stored with excess PBS which is not removed until just before the feeding of the cells.
The vertebral column is removed from decapitated rats and placed immediately into cold HBSS buffer (Hank's buffered saline solution, Gibco Invitrogen GmbH, Karlsruhe, Germany), i.e. buffer located in an ice bath, mixed with 1% by volume (percent by volume) of an AA solution (antibiotic/antimyotic solution, PAA, Pasching, Austria). The vertebral column is cut longitudinally and removed together with fasciae from the vertebral canal. Subsequently, the dorsal root ganglia (DRG) are removed and again stored in cold HBSS buffer mixed with 1% by volume of an AA solution. The DRG, from which all blood remnants and spinal nerves have been removed, are transferred in each case to 500 μL of cold type 2 collagenase (PAA, Pasching, Austria) and incubated for 35 minutes at 37° C. After the addition of 2.5% by volume of trypsin (PAA, Pasching, Austria), incubation is continued for 10 minutes at 37° C. After complete incubation, the enzyme solution is carefully pipetted off and 500 μL of complete medium are added to each of the remaining DRG. […] The contents of each Falcon tube are respectively filtered through a 70 μm Falcon filter element and centrifuged for 10 minutes at 1,200 rpm and RT. The resulting pellet is respectively taken up in 250 μL of complete medium and the cell count is determined.
The number of cells in the suspension is set to 3×10^5 per ml and 150 μL of this suspension are in each case introduced into a recess in the cell culture plates coated as described hereinbefore. […] Subsequently, the cells are loaded with 2 μM of Fluo-4 and 0.01% by volume of Pluronic F127 (Molecular Probes Europe BV, Leiden, the Netherlands) in HBSS buffer (Hank's buffered saline solution, Gibco Invitrogen GmbH, Karlsruhe, Germany) for 30 min at 37° C., washed 3 times with HBSS buffer and after further incubation for 15 minutes at RT used for Ca^2+ measurement in a FLIPR assay. The Ca^2+-dependent fluorescence is in this case measured before and after the addition of substances (λex=488 nm, λem=540 nm). Quantification is carried out by measuring the highest fluorescence intensity (FC, fluorescence counts) over time.
The FLIPR protocol consists of 2 substance additions.

What is called inhibition is the relative decrease from the control value, in per cent. The term Ki denotes the dissociation constant of the complex between target and ligand, obtained from inhibition or displacement.

SMILES strings stand for the structures.

rat-species vanilloid receptor 1 (VR1/TRPV1), sequence (O35433 whole entry): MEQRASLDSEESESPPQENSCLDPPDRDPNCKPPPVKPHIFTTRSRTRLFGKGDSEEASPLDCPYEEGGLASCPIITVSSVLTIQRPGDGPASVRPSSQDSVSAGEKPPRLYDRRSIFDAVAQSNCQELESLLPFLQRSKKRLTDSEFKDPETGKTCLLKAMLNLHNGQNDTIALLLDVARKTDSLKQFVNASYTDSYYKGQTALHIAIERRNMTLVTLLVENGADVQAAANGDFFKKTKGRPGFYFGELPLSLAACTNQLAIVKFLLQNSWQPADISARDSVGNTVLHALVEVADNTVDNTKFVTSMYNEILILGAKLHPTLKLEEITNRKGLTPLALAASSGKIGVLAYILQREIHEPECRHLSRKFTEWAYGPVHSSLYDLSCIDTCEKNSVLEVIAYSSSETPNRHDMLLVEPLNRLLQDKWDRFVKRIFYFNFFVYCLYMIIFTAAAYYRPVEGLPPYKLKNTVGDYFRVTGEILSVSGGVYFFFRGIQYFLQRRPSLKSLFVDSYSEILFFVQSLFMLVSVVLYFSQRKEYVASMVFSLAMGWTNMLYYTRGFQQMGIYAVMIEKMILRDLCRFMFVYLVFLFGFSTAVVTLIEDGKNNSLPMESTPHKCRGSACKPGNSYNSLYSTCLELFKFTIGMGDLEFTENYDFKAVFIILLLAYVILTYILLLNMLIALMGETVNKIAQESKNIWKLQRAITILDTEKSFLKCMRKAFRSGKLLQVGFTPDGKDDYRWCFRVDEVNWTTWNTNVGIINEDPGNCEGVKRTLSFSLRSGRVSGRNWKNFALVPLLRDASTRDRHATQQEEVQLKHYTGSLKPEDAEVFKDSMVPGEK
T1 sequence (Q8NER1 whole entry): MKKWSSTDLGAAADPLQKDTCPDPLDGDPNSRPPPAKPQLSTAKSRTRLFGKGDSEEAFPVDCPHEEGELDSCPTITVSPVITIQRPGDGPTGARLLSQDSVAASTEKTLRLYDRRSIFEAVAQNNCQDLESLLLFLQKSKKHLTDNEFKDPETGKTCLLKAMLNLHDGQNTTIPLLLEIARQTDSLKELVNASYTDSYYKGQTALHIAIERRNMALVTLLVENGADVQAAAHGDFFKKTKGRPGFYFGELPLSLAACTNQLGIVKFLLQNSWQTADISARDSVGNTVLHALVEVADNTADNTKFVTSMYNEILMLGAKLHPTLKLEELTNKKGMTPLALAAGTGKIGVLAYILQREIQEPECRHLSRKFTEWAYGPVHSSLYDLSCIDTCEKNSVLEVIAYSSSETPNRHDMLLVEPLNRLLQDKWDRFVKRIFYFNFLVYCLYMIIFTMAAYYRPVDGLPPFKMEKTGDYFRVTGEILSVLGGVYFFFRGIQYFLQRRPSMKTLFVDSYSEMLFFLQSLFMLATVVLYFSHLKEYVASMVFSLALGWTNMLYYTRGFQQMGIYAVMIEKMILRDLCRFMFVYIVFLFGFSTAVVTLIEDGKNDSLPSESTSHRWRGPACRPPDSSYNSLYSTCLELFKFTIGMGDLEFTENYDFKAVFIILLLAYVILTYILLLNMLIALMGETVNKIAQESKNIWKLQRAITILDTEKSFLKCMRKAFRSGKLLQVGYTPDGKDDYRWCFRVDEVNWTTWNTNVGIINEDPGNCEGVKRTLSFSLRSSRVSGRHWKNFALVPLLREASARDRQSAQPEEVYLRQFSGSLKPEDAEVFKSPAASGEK

Turning to `CC(C(=O)NCc1cc(C(C)(C)C)nn1C)c1ccc(NS(C)(=O)=O)c(F)c1` (centres unmarked) [Example 3, N-((3-tert-butyl-1-methyl-1H-pyrazol-5-yl)methyl)-2-(3-fluoro-4-(methylsulphonamido)phenyl)propanamide], the inhibition at 5 µM at hVR1 [1] is 12%; in assay [3] (read-out: Ki (rat) Cap: inhibition (as a percentage) @ 5 μM, capsaicin, inhibition determined at 5 μM), 14%. For the same compound, the “IC50 (human being) hVR1 pH: result in words (NE / AG)” value (from here on “IC50 … (NE / AG)”) at hVR1 [2] was “NE”.
As for `CC(C(=O)NCc1cc(C(C)(C)C)nn1-c1ccc(C(C)(C)C)cc1)c1ccc(NS(C)(=O)=O)c(F)c1` (centres unmarked) [Example 13, N-((3-tert-butyl-1-(4-tert-butylphenyl)-1H-pyrazol-5-yl)methyl)-2-(3-fluoro-4-(methylsulphonamido)phenyl)propanamide], the values for the inhibition constant Ki (at hVR1 [1]; in assay [3]) were 75.2 nM and 25.9 nM, respectively.
In the case of `COc1cc(C(C)C(=O)NCc2cc(C(C)(C)C)nn2-c2cccc(Cl)c2)ccc1NS(C)(=O)=O` (centres unmarked) [Example 27, N-((3-tert-butyl-1-(3-chlorophenyl)-1H-pyrazol-5-yl)methyl)-2-(3-methoxy-4-(methylsulphonamido)phenyl)propanamide], the Ki on hVR1 [1] is 2.2 nM; in assay [3], 1.2 nM. At hVR1 [2], the “IC50 … (NE / AG)” value is recorded as “NE”.
On to `C[C@H](C(=O)NCc1cc(C(C)(C)C)nn1-c1cccc(Cl)c1)c1ccc(NS(C)(=O)=O)c(F)c1` [Example 17, (S)-N-((3-tert-butyl-1-(3-chlorophenyl)-1H-pyrazol-5-yl)methyl)-2-(3-fluoro-4-(methylsulphonamido)phenyl)propanamide], for which the inhibition at 10 µM at hVR1 [2] turned out to be 37%.
Turning to `CC(C(=O)NCc1cc(C(C)(C)C)nn1-c1ccc(Cl)cc1)c1ccc(NS(C)(=O)=O)c(F)c1` (centres unmarked) [Example 14, N-((3-tert-butyl-1-(4-chlorophenyl)-1H-pyrazol-5-yl)methyl)-2-(3-fluoro-4-(methylsulphonamido)phenyl)propanamide], the figures for the Ki (at hVR1 [1]; in assay [3]) were 3.7 nM and 7.2 nM, respectively. For the same compound, the inhibition at 10 µM at hVR1 [2] was 25%.
On to `CC(C(=O)NCc1cc(C(C)(C)C)nn1-c1cccc(Cl)c1)c1ccc(N2CCCS2(=O)=O)c(F)c1` (centres unmarked) [Example 55, N-((3-tert-butyl-1-(3-chlorophenyl)-1H-pyrazol-5-yl)methyl)-2-[4-(1,1-dioxidoisothiazolidin-2-yl)-3-fluorophenyl]propanamide], for which, on hVR1 [1], the Ki stood at 114 nM. For the same compound, the “IC50 … (NE / AG)” value at hVR1 [2] is recorded as “NE”.
As to `Cc1ccc(-n2nc(C(C)(C)C)cc2CNC(=O)C(C)c2ccc(NS(C)(=O)=O)c(F)c2)cc1` (centres unmarked) [Example 12, N-((3-tert-butyl-1-p-tolyl-1H-pyrazol-5-yl)methyl)-2-(3-fluoro-4-(methylsulphonamido)phenyl)propanamide], the inhibition at 10 µM at hVR1 [2] came to 40%.
With `COc1ccc(Cn2nc(C(F)(F)F)cc2CNC(=O)Cc2cccc(F)c2)cc1` [Example 132, 2-(3-fluorophenyl)-N-((1-(4-methoxybenzyl)-3-(trifluoromethyl)-1H-pyrazol-5-yl)methyl)acetamide], the inhibition at 5 µM at hVR1 [1] amounted to 34%.
On to `CC(C(=O)NCc1cc(C(F)(F)F)nn1-c1cccc(Cl)c1)c1cc(F)cc(F)c1` (centres unmarked) [Example 30, N-((1-(3-chlorophenyl)-3-(trifluoromethyl)-1H-pyrazol-5-yl)methyl)-2-(3,5-difluorophenyl)propanamide], for which the Ki on hVR1 [1] is 6.3 nM.
Turning to `O=C(NCc1cc(C(F)(F)F)nn1-c1cccc(Cl)c1)C1(c2cccc(F)c2)CCCC1` [Example 120, N-((1-(3-chlorophenyl)-3-(trifluoromethyl)-1H-pyrazol-5-yl)methyl)-1-(3-fluorophenyl)cyclopentancarboxamide], on hVR1 [1] (CHO-K1, read-out: Ki (human being) inhibition (as a percentage) @ 1 μM, capsaicin, inhibition determined at 1 μM), the inhibition at 1 µM stood at 6%.
For `CC(C)(C)c1nc(CNC(=O)Cc2cccc(F)c2)n(-c2cccc(Cl)c2)n1` [Example 135, N-((3-tert-butyl-1-(3-chlorophenyl)-1H-1,2,4-triazol-5-yl)methyl)-2-(3-fluorophenyl)acetamide], the inhibition at 5 µM on hVR1 [1] is 24%.
Turning to `CC(C(=O)NCc1cc(C(F)(F)F)nn1-c1cccc(Cl)c1)c1ccc(C(=O)Nc2ccc(C(F)(F)F)cc2)cc1` (centres unmarked) [Example 41, 4-(1-((1-(3-chlorophenyl)-3-(trifluoromethyl)-1H-pyrazol-5-yl)methylamino)-1-oxopropan-2-yl)-N-(4-(trifluoromethyl)phenyl)benzamide], the Ki at hVR1 [1] stood at 85 nM.
